According to PubChem BioAssay AID192 (DTP/NCI, 2004):
Values joined by “and” are separate entries in the source; they are usually repeats but may differ in a detail not shown here. Equal entries are not always repeated. Inconclusive results and toxic doses are left out. Square brackets hold non-standard residues; d marks the D form. Peptide text beside a SMILES is read from it. * marks the point of attachment. ξ: configuration not given here. ξF = NC(Cc1ccccc1)C(=O)O; Bz = O=C(c1ccccc1)*

Test system: BDF1 mice, B16 melanoma ip, median survival T/C
Test: NCI In Vivo Anticancer Drug Screen. Data for tumor model B16 Melanoma (intraperitoneal) in B6D2F1 (BDF1) mice
Settings: endpoint: median survival time, higher = longer survival
Outline: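 Mice with transplantable tumors; drug vs vehicle groups; endpoint survival or tumor size; value = T/C.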

[1] = dose: 1.56 mg/kg/injection, schedule: Q01DX009 (ip), vehicle: saline
[2] = dose: 3.13 mg/kg/injection, schedule: Q01DX009 (ip), vehicle: saline
[3] = dose: 6.25 mg/kg/injection, schedule: Q01DX009 (ip), vehicle: saline
[4] = dose: 12.5 mg/kg/injection, schedule: Q01DX009 (ip), vehicle: saline
[5] = dose: 25.0 mg/kg/injection, schedule: Q01DX009 (ip), vehicle: saline
[6] = dose: 50.0 mg/kg/injection, schedule: Q01DX009 (ip), vehicle: Klucel (hydroxypropylcellulose) (HPC)
[7] = dose: 6.25 mg/kg/injection, schedule: Q01DX009 (ip), vehicle: saline with Tween-80
[8] = dose: 12.5 mg/kg/injection, schedule: Q01DX009 (ip), vehicle: saline with Tween-80
[9] = dose: 25.0 mg/kg/injection, schedule: Q01DX009 (ip), vehicle: saline with Tween-80
[10] = dose: 50.0 mg/kg/injection, schedule: Q01DX009 (ip), vehicle: saline with Tween-80
[11] = dose: 200.0 mg/kg/injection, schedule: Q01DX009 (ip), vehicle: saline with Tween-80
[12] = dose: 100.0 mg/kg/injection, schedule: Q04DX003 (ip), vehicle: Klucel (hydroxypropylcellulose) (HPC)
[13] = dose: 200.0 mg/kg/injection, schedule: Q04DX003 (ip), vehicle: Klucel (hydroxypropylcellulose) (HPC)
[14] = dose: 400.0 mg/kg/injection, schedule: Q04DX003 (ip), vehicle: Klucel (hydroxypropylcellulose) (HPC)
[15] = dose: 100.0 mg/kg/injection, schedule: Q01DX009 (ip), vehicle: Klucel (hydroxypropylcellulose) (HPC)
[16] = dose: 200.0 mg/kg/injection, schedule: Q01DX009 (ip), vehicle: Klucel (hydroxypropylcellulose) (HPC)

COC(=O)[C@@H]1c2cc3c(c(O)c2[C@@H](OC2OC(C)C(OC)C(C)(OC)C2OC)C[C@]1(C)O)C(=O)c1c(O)cc2c(c1C3=O)O[C@H]1O[C@]2(C)[C@H](O)[C@@H](N(C)C)[C@@H]1O (some centres undefined)
T/C (dose: 250.0 micrograms/kg/injection, schedule: Q01DX009 (ip), vehicle: other): 171 % of control | T/C (dose: 500.0 micrograms/kg/injection, schedule: Q01DX009 (ip), vehicle: other): 171 % of control | T/C (dose: 648.0 micrograms/kg/injection, schedule: Q04DX003 (ip), vehicle: lactic acid): 100 % of control | T/C (dose: 1080.0 micrograms/kg/injection, schedule: Q04DX003 (ip), vehicle: lactic acid): 107 % of control and 121 % of control | T/C (dose: 1800.0 micrograms/kg/injection, schedule: Q04DX003 (ip), vehicle: lactic acid): 110 % of control

CCCC[S+](CCCC)CC(=O)c1ccc(-c2ccccc2)cc1
T/C [1]: 110 % of control | T/C [2]: 96 % of control | T/C [3]: 95 % of control | T/C [4]: 94 % of control | T/C [5]: 105 % of control

Cc1n(CC(C)C)c2c([n+]1CC(=O)c1ccc([N+](=O)[O-])cc1)C(=O)c1ccccc1C2=O
T/C (dose: 0.1 mg/kg/injection, schedule: Q01DX009 (ip), vehicle: saline): 95 % of control | T/C (dose: 0.2 mg/kg/injection, schedule: Q01DX009 (ip), vehicle: saline): 97 % of control | T/C (dose: 0.4 mg/kg/injection, schedule: Q01DX009 (ip), vehicle: saline): 97 % of control | T/C (dose: 0.8 mg/kg/injection, schedule: Q01DX009 (ip), vehicle: saline): 88 % of control | T/C (dose: 1.2 mg/kg/injection, schedule: Q01DX009 (ip), vehicle: Klucel (hydroxypropylcellulose) (HPC)): 93 % of control | T/C (dose: 1.25 mg/kg/injection, schedule: Q01DX009 (ip), vehicle: saline with Tween-80): 86 % of control | T/C (dose: 1.8 mg/kg/injection, schedule: Q01DX009 (ip), vehicle: Klucel (hydroxypropylcellulose) (HPC)): 93 % of control | T/C (dose: 2.5 mg/kg/injection, schedule: Q01DX009 (ip), vehicle: saline with Tween-80): 86 % of control | T/C (dose: 3.0 mg/kg/injection, schedule: Q01DX009 (ip), vehicle: Klucel (hydroxypropylcellulose) (HPC)): 87 % of control | T/C (dose: 5.0 mg/kg/injection, schedule: Q01DX009 (ip), vehicle: Klucel (hydroxypropylcellulose) (HPC)): 93 % of control

CC[CH2][Pb]([CH2]CC)([CH2]CC)[O]C(=O)C(Cl)(Cl)Cl
T/C (dose: 2.0 mg/kg/injection, schedule: Q01DX009 (ip), vehicle: Klucel (hydroxypropylcellulose) (HPC)): 120 % of control | T/C (dose: 4.0 mg/kg/injection, schedule: Q01DX009 (ip), vehicle: Klucel (hydroxypropylcellulose) (HPC)): 112 % of control

CC(C)(C)N1C(=O)N(C(C)(C)C)C1=O
T/C (dose: 75.0 mg/kg/injection, schedule: Q01DX009 (ip), vehicle: other): 102 % of control | T/C (dose: 150.0 mg/kg/injection, schedule: Q01DX009 (ip), vehicle: other): 105 % of control | T/C (dose: 300.0 mg/kg/injection, schedule: Q01DX009 (ip), vehicle: other): 102 % of control

O=C(Nc1ccccc1F)c1ccc(C(=O)Nc2ccccc2F)cc1
T/C (dose: 12.5 mg/kg/injection, schedule: Q01DX009 (ip), vehicle: Klucel (hydroxypropylcellulose) (HPC)): 100 % of control | T/C (dose: 25.0 mg/kg/injection, schedule: Q01DX009 (ip), vehicle: Klucel (hydroxypropylcellulose) (HPC)): 105 % of control | T/C [6]: 101 % of control

COc1ccc(S(=O)(=O)N=N/C=C2\C=CC=CN2O)cc1OC
T/C [7]: 99 % of control | T/C [8]: 100 % of control | T/C [9]: 112 % of control | T/C [10]: 112 % of control | T/C [11]: 161 % of control

CCOC(=O)CCCN(c1ccccc1CC(=O)OCC)S(C)(=O)=O
T/C [12]: 96 % of control | T/C [13]: 104 % of control | T/C [14]: 96 % of control

O=C(O)/C=C/C(=O)Nc1ccc(N=Nc2ccccc2)cc1
T/C [6]: 104 % of control | T/C [15]: 105 % of control | T/C [16]: 97 % of control

Clc1ccc2c(c1)/C(=C\c1ccnc3ccccc13)c1cc(Cl)cc(Cl)c1-2
T/C [7]: 93 % of control

O=P(CCCCCCP(=O)(N1CC1)N1CC1)(N1CC1)N1CC1
T/C [15]: 176 % of control

COc1ccc([I+]c2cccc(Cl)c2)cc1Cl
T/C [7]: 112 % of control | T/C [8]: 112 % of control | T/C [9]: 104 % of control

O=C1c2ccccc2C(Cl)=C(Cl)C1(Cl)Cl
T/C (dose: 12.5 mg/kg/injection, schedule: Q04DX003 (ip), vehicle: Klucel (hydroxypropylcellulose) (HPC)): 87 % of control | T/C (dose: 25.0 mg/kg/injection, schedule: Q04DX003 (ip), vehicle: Klucel (hydroxypropylcellulose) (HPC)): 92 % of control

N=[N+]=CC(=O)OCC(N)C(=O)O (centres undefined)
T/C (dose: 1.5 mg/kg/injection, schedule: Q01DX009 (ip), vehicle: other): 100 % of control | T/C [2]: 100 % of control | T/C (dose: 5.0 mg/kg/injection, schedule: Q04DX003 (ip), vehicle: water): 102 % of control | T/C [3]: 102 % of control | T/C (dose: 10.0 mg/kg/injection, schedule: Q04DX003 (ip), vehicle: other): 100 % of control | T/C [4]: 105 % of control | T/C (dose: 15.0 mg/kg/injection, schedule: Q04DX003 (ip), vehicle: water): 115 % of control | T/C (dose: 20.0 mg/kg/injection, schedule: Q04DX003 (ip), vehicle: other): 100 % of control | T/C (dose: 375.0 micrograms/kg/injection, schedule: Q01DX009 (ip), vehicle: water): 118 % of control | T/C (dose: 750.0 micrograms/kg/injection, schedule: Q01DX009 (ip), vehicle: water): 107 % of control

FC(F)(F)c1ccc2c(c1)N(CCCN1CCN(CCOCCCl)CC1)c1ccccc1S2
T/C (dose: 0.39 mg/kg/injection, schedule: Q01DX009 (ip), vehicle: saline): 123 % of control | T/C (dose: 0.78 mg/kg/injection, schedule: Q01DX009 (ip), vehicle: saline): 115 % of control | T/C [1]: 110 % of control | T/C (dose: 2.34 mg/kg/injection, schedule: Q04DX003 (ip), vehicle: saline): 92 % of control | T/C (dose: 4.68 mg/kg/injection, schedule: Q04DX003 (ip), vehicle: saline): 86 % of control

Cc1ccc(C)c(NC(=O)Nc2ccccc2Cl)c1
T/C (dose: 25.0 mg/kg/injection, schedule: Q01DX009 (ip), vehicle: gum acacia): 86 % of control | T/C (dose: 50.0 mg/kg/injection, schedule: Q01DX009 (ip), vehicle: gum acacia): 90 % of control | T/C (dose: 100.0 mg/kg/injection, schedule: Q01DX009 (ip), vehicle: gum acacia): 88 % of control | T/C (dose: 100.0 mg/kg/injection, schedule: Q04DX003 (ip), vehicle: gum acacia): 90 % of control

COc1ccc(NC(=O)Nc2ccc(Cl)cc2)cc1
T/C [12]: 100 % of control | T/C [13]: 95 % of control | T/C [14]: 90 % of control

Cc1ccc(S(=O)(=O)N2CCCC(=O)c3ccc(Cl)cc32)cc1
T/C [12]: 103 % of control | T/C [13]: 99 % of control | T/C [14]: 99 % of control

O=C(CNC(=O)c1ccccc1)NCC(=O)NC(Cc1ccccc1)C(=O)O (stereo not drawn) (Bz-Gly-Gly-[ξF]-OH)
T/C [10]: 90 % of control | T/C (dose: 100.0 mg/kg/injection, schedule: Q01DX009 (ip), vehicle: saline with Tween-80): 87 % of control | T/C [11]: 90 % of control

CCCC(Cc1ccccc1)N1CCCC1 (centres undefined)
T/C [1]: 105 % of control | T/C (dose: 3.12 mg/kg/injection, schedule: Q01DX009 (ip), vehicle: saline): 100 % of control | T/C [3]: 92 % of control | T/C [4]: 115 % of control | T/C [5]: 102 % of control

N=C(N)SCc1c2ccccc2c(CSC(=N)N)c2ccccc12
T/C [4]: 238 % of control | T/C [5]: 285 % of control

CN(C)CCOC(=O)COc1ccc(Cl)cc1
T/C [5]: 104 % of control | T/C (dose: 50.0 mg/kg/injection, schedule: Q01DX009 (ip), vehicle: saline): 104 % of control | T/C (dose: 100.0 mg/kg/injection, schedule: Q01DX009 (ip), vehicle: saline): 109 % of control | T/C (dose: 200.0 mg/kg/injection, schedule: Q01DX009 (ip), vehicle: saline): 102 % of control | T/C (dose: 400.0 mg/kg/injection, schedule: Q01DX009 (ip), vehicle: saline): 97 % of control

CC1CC(NC(=O)/C=C/C(=O)O)CC(C)(C)C1 (centres undefined)
T/C [15]: 93 % of control | T/C [16]: 95 % of control | T/C (dose: 400.0 mg/kg/injection, schedule: Q01DX009 (ip), vehicle: Klucel (hydroxypropylcellulose) (HPC)): 93 % of control
